Results reported in patent publication US20160046604A1, “HETEROARYL SUBSTITUTED INDAZOLES” (BAYER PHARMA AKTIENGESELLSCHAFT, priority 2013, published 2016).
pIC50: −log10 of the molar value. Like-named read-outs stand apart in the source and are kept apart here.

How the values were obtained:
[1] = target: T1, catalytic domain of human Bub1 (amino acids 704-1085) (Homo sapiens, UniProt O43683); assay: Bub1 kinase assay (TR-FRET); type: biochemical
T1 construct: catalytic domain of human Bub1 (amino acids 704-1085); His6 (N); made in house; host or cells: Hi5 insect cells
T1 sequence (O43683 704-1085): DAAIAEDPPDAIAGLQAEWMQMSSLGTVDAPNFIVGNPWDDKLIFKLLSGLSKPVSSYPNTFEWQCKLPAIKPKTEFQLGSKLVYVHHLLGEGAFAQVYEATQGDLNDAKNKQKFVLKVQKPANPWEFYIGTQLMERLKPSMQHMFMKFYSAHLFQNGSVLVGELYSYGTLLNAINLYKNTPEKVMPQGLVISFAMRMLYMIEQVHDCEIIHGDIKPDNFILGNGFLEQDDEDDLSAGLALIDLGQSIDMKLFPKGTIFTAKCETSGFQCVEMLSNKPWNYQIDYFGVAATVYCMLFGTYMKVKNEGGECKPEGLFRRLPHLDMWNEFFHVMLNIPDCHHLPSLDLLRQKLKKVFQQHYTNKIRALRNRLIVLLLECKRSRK
Experimental: To this end, 100-fold concentrated compound solutions (in DMSO) were previously prepared by serial dilution (1:3.4) of 2 mM stocks in a clear low volume 384-well source microtiter plate (Greiner Bio-One, Frickenhausen, Germany), from which 50 nL of compounds were transferred into a black low volume test microtiter plate from the same supplier. […] The resulting mixture (5 μL final volume) was incubated at 22° C. during 60 min., and the reaction was stopped by the addition of 5 μL of an aqueous EDTA-solution (50 mM EDTA, in 100 mM HEPES pH 7.5 and 0.2% (w/v) bovine serum albumin) which also contained the TR-FRET detection reagents (0.2 μM streptavidin-XL665 [Cisbio Bioassays, Codolet, France] and 1 nM anti-phoshoSerine antibody [Merck Millipore, cat. #35-001] and 0.4 nM LANCE EU-W1024 labeled anti-mouse IgG antibody [Perkin-Elmer, product no. AD0077, alternatively a Terbium-cryptate-labeled anti-mouse IgG antibody from Cisbio Bioassays can be used]). The stopped reaction mixture was further incubated 1 h at 22° C. in order to allow the formation of complexes between peptides and detection reagents. Subsequently, the amount of product was evaluated by measurement of the resonance energy transfer from the Eu-chelate-antibody complex recognizing the Phosphoserine residue to the streptavidin-XL665 bound to the biotin moiety of the peptide. […] IC50 values were calculated by fitting the normalized inhibition data to a 4-parameter logistic equation (Minimum, Maximum, IC50, Hill; Y=Max+(Min−Max)/(1+(X/IC50)Hill)).

[2] = tested on: HeLa human cervical tumor cells; assay: Proliferation assay (HeLa cell line); conditions: 96 h, read-out: Biological Assay 2: Proliferation assay (HeLa cell line) median IC50;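 note: crystal violet staining, absorbance at 595 nm, 0.001–10 µM test range, 4-day exposure, 0% is cell number at dosing and 100% untreated growth, IC50 from 4-parameter fit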
Experimental: Cultivated HeLa human cervical tumor cells (cells were ordered from ATCC CCL-2) were plated at a density of 3000 cells/well in a 96-well multititer plates in 200 microL DMEM/HAMS F12 culture medium (Biochrom F4815) supplemented with 10% fetal calf serum. After 24 hours, the cells of one plate (zero-point plate) were stained with crystal violet (see below), while the medium of the other plates was replaced by fresh culture medium (200 microL) containing the test substances in various concentrations (0 microM, as well as in the range of 0.001-10 microM; the final concentration of the solvent dimethyl sulfoxide was 0.5%). The cells were incubated for 4 days in the presence of test substances. Cell proliferation was determined by staining the cells with crystal violet: the cells were fixed by adding 20 microL/measuring point of an 11% glutaric aldehyde solution for 15 minutes at room temperature. After three washing cycles of the fixed cells with water, the plates were dried at room temperature. The cells were stained by adding 100 microL/measuring point of a 0.1% crystal violet solution (pH 3.0). After three washing cycles of the stained cells with water, the plates were dried at room temperature. The dye was dissolved by adding 100 microL/measuring point of a 10% acetic acid solution. Absorption was determined by photometry at a wavelength of 595 nm. The change of cell number, in percent, was calculated by normalization of the measured values to the absorption values of the zero-point plate (=0%) and the absorption of the untreated (0 microM) cells (=100%). The IC50 values were determined by means of a 4 parameter fit.

| SMILES | pIC50 [1] | pIC50 [2] | pIC50 ([1]; TR-FRET, recombinant catalytic domain of human Bub1, ATP 10 μM, peptide substrate 1 μM, 60 min at 22° C., read-out: Biological Assay 1: Bub1 kinase assay median IC50) |
| --- | --- | --- | --- |
| COc1cnc(-c2nn(Cc3ccc(C(F)(F)F)nc3C)c3ccccc23)nc1Nc1ccncc1 [Example 2-1-5, 5-methoxy-2-(1-{[2-methyl-6-(trifluoromethyl)pyridin-3-yl]methyl}-1H-indazol-3-yl)-N-(pyridin-4-yl)pyrimidin-4-amine] | 7.24 | 5.15 | – |
| COc1cnc(-c2nn(Cc3nn(C)cc3Cl)c3ccccc23)nc1Nc1ccncc1 [Example 2-2-2, 2-{1-[(4-chloro-1-methyl-1H-pyrazol-3-yl)methyl]-1H-indazol-3-yl}-5-methoxy-N-(pyridin-4-yl)pyrimidin-4-amine] | – | 5.36 | 7.34 |
| CCOC(=O)c1cnccc1Nc1cc(N)nc(-c2nn(Cc3c(C)noc3C)c3ccccc23)n1 [Example 2-3-1, ethyl 4-[(6-amino-2-{1-[(3,5-dimethyl-1,2-oxazol-4-yl)methyl]-1H-indazol-3-yl}pyrimidin-4-yl)amino]pyridine-3-carboxylate] | 7.15 | < 5.00 | – |
| Cc1noc(C)c1Cn1nc(-c2nc(Nc3ccncn3)cc(Nc3ccncn3)n2)c2ccccc21 [Example 2-3-5, 2-{1-[(3,5-dimethyl-1,2-oxazol-4-yl)methyl]-1H-indazol-3-yl}-N,N′-di(pyrimidin-4-yl)pyrimidine-4,6-diamine] | 6.82 | < 5.00 | – |
